{
  "source": "patent US20220040086A1",
  "about": "“FORMULATION AND AEROSOL CANISTERS, INHALERS, AND THE LIKE CONTAINING THE FORMULATION” (KINDEVA DRUG DELIVERY L.P., priority 2018, published 2022)",
  "key": {"[1]": {"conditions": "30 mg in 30 mL 2H,3H-decafluoropentane, sonic probe 1 minute", "method": "30 mg of the resulting anhydrous ipratropium bromide was added to a glass sample jar followed by 30 mL of 2H,3H-decafluoropentane."}, "[2]": {"conditions": "50 mg in 2 g Malvern dispersant (lecithin in isooctane), sonicated 3 minutes"}, "[3]": {"assay": "Rehydration of anhydrous ipratropium bromide (sample weight over time)", "format": "physicochemical", "procedure": "The weight of the powder after heating was 9.563 g. The sample was weighed every 10 minutes for 90 minutes and then left over the weekend at 24° C. and 30% humidity.\nThe sample was then placed in a desiccator for 24 hours and weighed again."}, "[4]": {"conditions": "general statement", "source_text": "The two formulations were examined by microscope after 2 and 4 weeks storage at ambient temperature and humidity. Each vial was sprayed onto a microscope slide via a standard 3M MK6 actuator."}, "[5]": {"assay": "Differential scanning calorimetry thermogram", "format": "physicochemical", "conditions": "DSC thermogram", "source_text": "Ipratropium, in particular ipratropium bromide, is commercially available as a hydrate, and more particularly as the monohydrate. Dehydration of hydrated ipratropium, in particular ipratropium bromide monohydrate, can be achieved by any suitable method. […] A particularly suitable method is heating the particulate ipratropium, in particular ipratropium bromide monohydrate, in a drying oven for a period of time. The drying oven can be heated to a temperature high enough to remove the water. […] Useful oven temperatures at ambient pressure include at least 100° C., at least 110° C., at least 120° C., at least 125° C., no greater than 240° C., no greater than 230° C., no greater than 225° C., between 100° C. and 240° C., between 110° C. and 230° C., between 120° C. and 220° C., between 125° C. and 215° C., or more particularly about 125° C. The use of pressures less than ambient pressure, such as in a vacuum oven, can be useful in reducing the temperature for dehydration. The time necessary to dehydrate the particulate ipratropium, in particular ipratropium bromide monohydrate, is the amount of time it takes to remove the desired amount of water from the particulate ipratropium. If the amount of water in a sample of particulate ipratropium is known, complete dehydration is complete when the mass of the remaining ipratropium is essentially anhydrous ipratropium. […]"}},
  "data": [
    {"compound": "CC(C)[N+]1(C)[C@@H]2CC[C@H]1CC(OC(=O)C(CO)c1ccccc1)C2.[Br-]", "note": "(stereo partly shown) [anhydrous ipratropium bromide]", "values": [
      {"measurement": "agglomeration observed with magnifying glass (x10)", "setting": "[1]", "value": "significant agglomeration"},
      {"measurement": "agglomerates under a microscope", "setting": "[2]", "value": "essentially free of agglomerates"},
      {"measurement": "dispersion appearance", "setting": "[2]", "value": "dispersed satisfactorily"},
      {"measurement": "Sample weight", "setting": "[3]; 10 mins", "value": 9.597, "unit": "g"},
      {"measurement": "Sample weight", "setting": "[3]; 20 mins", "value": 9.600, "unit": "g"},
      {"measurement": "Sample weight", "setting": "[3]; 30 mins", "value": 9.601, "unit": "g"},
      {"measurement": "Sample weight", "setting": "[3]; 40 mins", "value": 9.602, "unit": "g"},
      {"measurement": "Sample weight", "setting": "[3]; 50 mins", "value": 9.603, "unit": "g"},
      {"measurement": "Sample weight", "setting": "[3]; 60 mins", "value": 9.603, "unit": "g"},
      {"measurement": "Sample weight", "setting": "[3]; 70 mins", "value": 9.602, "unit": "g"},
      {"measurement": "Sample weight", "setting": "[3]; 80 mins", "value": 9.602, "unit": "g"},
      {"measurement": "Sample weight", "setting": "[3]; 90 mins", "value": 9.603, "unit": "g"},
      {"measurement": "Sample weight", "setting": "[3]; 2.5 days at 24° C. and 30% humidity", "value": 9.606, "unit": "g"},
      {"measurement": "weight decrease relative to unmicronized ipratropium bromide monohydrate starting material", "setting": "[3]; after 2.5 days at 24° C. and 30% humidity (9.606 g)", "value": 3.94, "unit": "%"},
      {"measurement": "Sample weight", "setting": "[3]; after a further 24 hours in a desiccator", "value": 9.568, "unit": "g"},
      {"measurement": "weight loss relative to unmicronized ipratropium bromide monohydrate starting material", "setting": "[3]; after a further 24 hours in a desiccator (9.568 g)", "value": 4.14, "unit": "%"}
    ]},
    {"compound": "CC(C)[N+]1(C)[C@@H]2CC[C@H]1CC(OC(=O)C(CO)c1ccccc1)C2.[Br-]", "note": "(stereo partly shown) [anhydrous micronized ipratropium bromide]", "values": [
      {"measurement": "stability when formulated in a HFA propellant", "setting": "[4]", "value": "stable"}
    ]},
    {"compound": "CC(C)[N+]1(C)[C@@H]2CC[C@H]1C[C@@H](OC(=O)C(CO)c1ccccc1)C2.O.[Br-]", "note": "(stereo partly shown) [micronized ipratropium bromide monohydrate]", "values": [
      {"measurement": "agglomeration observed with magnifying glass (x10)", "setting": "[1]", "value": "not"},
      {"measurement": "agglomerates under a microscope", "setting": "[2]", "value": "essentially free of agglomerates"},
      {"measurement": "dispersion appearance", "setting": "[2]", "value": "dispersed satisfactorily"}
    ]},
    {"compound": "CC(C)[N+]1(C)[C@@H]2CC[C@H]1C[C@@H](OC(=O)C(CO)c1ccccc1)C2.O.[Br-]", "note": "(stereo partly shown) [ipratropium bromide monohydrate]", "values": [
      {"measurement": "degradation temperature", "setting": "[5]", "value": "approximately 240 °C"},
      {"measurement": "water loss starting temperature", "setting": "[5]", "value": "approximately 100 °C"}
    ]}
  ]
}
